Assay: Human HepG2 cell viability assay in 384 well format
Type: toxicity, cell-based
Parameters: dose 125 nL, time 70.5 hour; cytotoxicity at 70.5 h: concentration not given beside the values
Conditions: HepG2 cells, read-out: Inhibition

SMILES	cytotoxicity at 70.5 h [%]
CCOc1nc2cccnc2n(CC(=O)NCCOC)c1=O	-14.5
CCc1ccc(NC(=O)c2cnc(N3CCN(C)CC3)nc2C)cc1	36.8
COc1ccc(OC)c(NC(=O)c2nc3ccccc3n(C)c2=O)c1	-7.65
COc1cccc(CN2CCCCCC2c2cccc(C)c2)c1O (stereo unspecified)	6.46
COC(=O)c1cccc(C(=O)N2CCN(c3ccccc3F)CC2)n1	28.8
O=C(Cn1ccc2sccc2c1=O)NCc1ccc2c(c1)OCO2	-6.54
CCCS(=O)(=O)Nc1ccc2c(c1)OCC(C)(C)C(=O)N2C	7.24
COc1cccc(CNc2c(C)cnc3c2c(=O)n(C)c(=O)n3C)c1	35.6
Cc1cnc2c(c1NCc1ccncc1)c(=O)n(C)c(=O)n2C	-2.95
CCc1cnc2c(c1Nc1ccc(OC)cc1)c(=O)n(C)c(=O)n2C	21.4
CCc1cnc2c(c1NCc1cccc(OC)c1)c(=O)n(C)c(=O)n2C	33.7
COCCNC(=O)Cn1nc(C(C)C)c2cnn(C(C)(C)C)c2c1=O	-3.75
CCCC(=O)Nc1sc(C(=O)OCC)c(C)c1C#N	-2.39
CCCc1cc(=O)n(CC(N)=O)c(-n2nc(C)cc2C)n1	-4.18
CC1CCN(S(=O)(=O)c2cccn(CC(=O)NC3CCCC3)c2=O)CC1	-3.39
COc1ccc(Br)c(C(=O)NCC2CCN(S(=O)(=O)C3CC3)CC2)c1	16.8
CCOc1ccc(NC(=O)CN2CCN(c3nccn3C)CC2)cc1	-2.94
COc1ccc(C(=O)NCC(c2cccn2C)N2CCCC2)c(OC)c1 (stereo unspecified)	14.2
Cn1cccc1C(CNC(=O)c1ccc(F)cc1F)N1CCCCCC1 (stereo unspecified)	34.1
COc1ccc(C)cc1S(=O)(=O)NCC(c1cccn1C)N(C)C (stereo unspecified)	-3.74
Cc1cccc(C(=O)NCCCN2CCN(c3ccccc3)CC2)c1	7.06
COc1ncccc1C(=O)N1CCC(c2nnc(C3CC3)o2)CC1	4.57
COc1nn(C)cc1C(=O)N1CCC(c2nnc(C3CC3)o2)CC1	-1.01

SMILES	cytotoxicity at 70.5 h [%]
O=C(NCC(Cc1cccc(F)c1)N1CCCC1=O)c1ccccc1 (stereo unspecified)	4.11
O=S(=O)(Cc1ccccc1)NCC1CCN(c2cnccn2)CC1	4.32
Cc1nc(CNC(=O)C(C)Oc2ccccc2F)no1 (stereo unspecified)	-5.02
COc1ccc(OC)c([C@@H]2N[C@H](c3nccs3)Cc3ccsc32)c1	-11.6
CCOc1cc([C@H]2N[C@@H](c3nc(C)cs3)Cc3ccsc32)ccc1OC	-6.01
CCS(=O)(=O)N1C[C@@H](C(=O)NC(C)C)[C@@]2(Cc3ccccc3C(=O)N2)C1	-11.3
COc1cc(C(=O)NC(C)(C)CN2CCN(C)CC2)c2ccccc2n1	-11.5
OC1CCCOC12CCN(CCCOc1ccccc1F)CC2 (stereo unspecified)	-10.9
CC(C)(C)NC(=O)[C@@H]1CNC[C@]12Cc1ccccc1C(=O)N2	-4.03
CCC1CCCCN1C(=O)Cn1nc(-c2ccc(C)o2)cc(N)c1=O (stereo unspecified)	-15.1
CN1C[C@@H](C(=O)NC2CC2)[C@@]2(COc3ccc(F)cc3C2=O)C1	12.2
CN(C)Cc1cnc(C2CCN(C(=O)c3cccc(F)c3)C2)[nH]1 (stereo unspecified)	20.2
CN(C)Cc1cnc(C2CCN(C(=O)c3cc(F)cc(F)c3)C2)[nH]1 (stereo unspecified)	-2.53
CNC(=O)C1(Cc2cc(C(C)C)no2)CCN(Cc2cccnc2)C1 (stereo unspecified)	-5.78
CO[C@H]1C[C@@H]2CN(C(=O)c3cccc4c3OCCO4)C[C@@H]2C1	20.7
Cc1noc(C)c1-c1cc(CCC2CN(C(=O)C(C)C)CCO2)ncn1 (stereo unspecified)	-3.99
O[C@H]1CN(CCCOc2ccccc2F)CC[C@@]12CCCO2	-2.73
Cc1cc(C(F)F)nn1C(C)C(=O)NCc1ncc[nH]1 (stereo unspecified)	-1.75
Cc1cncc(C2CCN(Cc3ccsc3)CC2)n1	4.8
CNC(=O)C1CN(C(=O)c2cccnc2)CCN(S(C)(=O)=O)C1 (stereo unspecified)	-4.31
Cc1nccc(N(C)Cc2ncc(-c3ccccc3C(=O)O)s2)n1	-1.97
CS(=O)(=O)N1CCC(c2cnc(-c3cn[nH]c3)cn2)CC1	0.854
CNC(=O)C1CN(C)CCN(C(=O)CCn2nnc3ccccc32)C1 (stereo unspecified)	0.266

SMILES	cytotoxicity at 70.5 h [%]
Cn1ccc(C(=O)N2CCc3[nH]nc(Nc4ccccc4)c3C2)n1	1.75
CNC(=O)C1CN(C(=O)c2cccs2)CCN(S(C)(=O)=O)C1 (stereo unspecified)	-2.89
CC(=O)N1CCOCC(Cc2ccc3c(ccn3C(C)=O)c2)C1 (stereo unspecified)	-2.4
c1cncc(CN2CCCCC2c2ccc(Nc3cnccn3)nc2)c1 (stereo unspecified)	-5.32
O=C(Cc1cccnc1)N1CCC(c2nnc(-c3ccccn3)o2)CC1	25.5
CNC(=O)C1CN(C(=O)c2ccccc2)Cc2cn(C)nc21 (stereo unspecified)	26.9
COc1cc(CCC(=O)N2CCC(c3cc4nccnc4[nH]3)CC2)on1	28.5
Cc1nn(C)cc1CN1CCN(CC2(c3ccccc3)CC2)CC1	-1.67
CC(=O)N1C[C@H](c2cc(O)nc(C)n2)[C@@H](c2ccccc2F)C1	-2.65
CN(CCc1ccccc1)Cc1cnc(C2(C)CCCCO2)nc1 (stereo unspecified)	1.38
COCCC(=O)N1C[C@@H](O)[C@H](N2CCN(c3ccccc3)CC2)C1	-2.33
Cc1n[nH]c(C)c1CC(=O)N1CC[C@@](C)(O)[C@H](Oc2ccccc2)C1	-6.16
Nc1ncnc2nc(C3CCN(C(=O)Cc4ccccc4)C3)ccc12 (stereo unspecified)	13.4
COC(=O)c1cccc(C2CNCCN2C)c1 (stereo unspecified)	12
Cc1nc(-c2c(C)noc2C)cc(C2CCN(S(=O)(=O)N(C)C)CC2)n1	-8.98
CN1CCCC1c1nnc2n1CCN(S(=O)(=O)c1ccccc1Cl)CC2 (stereo unspecified)	-8.1
CC(=O)Nc1ccc(CN2CCCC(c3cc4ncccc4[nH]3)C2)cc1 (stereo unspecified)	-5.47
CNc1cncc(C2CCCN2C(=O)Cn2ccnc2C)n1 (stereo unspecified)	-5.3
N[C@@H]1CCCN(C(=O)Cc2c[nH]c3ccccc23)[C@H]1c1ccccc1F	23.2
Cc1cc(-c2cnc(N(C)C)nc2C2CCCCN2C(=O)C2CC2)on1 (stereo unspecified)	-3.37
O=S(=O)(c1cccc(F)c1)N1CCCCC1c1ccn[nH]1 (stereo unspecified)	-7.34
Cc1nc(-c2cccc(C(=O)O)c2)cc(C2CCCN(C(C)C)C2)n1 (stereo unspecified)	13.2
COc1ccccc1CN1CC[C@H]2[C@@H](C1)[C@H](c1ccsc1)CN2C(C)=O	18.4

SMILES	cytotoxicity at 70.5 h [%]
Cn1cc(C(=O)N2CCCC(CN3CCCC3=O)C2)cn1 (stereo unspecified)	-7.83
O=C(NC[C@]1(O)CN(Cc2ccccc2F)C[C@H]1O)c1cscn1	-8.78
Cc1nccn1CC1CCCN(C(=O)c2cnn(C)c2)C1 (stereo unspecified)	-12.8
O=C(O)c1ccccc1-c1ccc(CN2CC(O)C2)cc1	-11.6
COc1cccc(-c2noc(C3CCN(CC(N)=O)C3)n2)c1 (stereo unspecified)	-4.11
Cc1csc(Nc2cc(C3CCCCN3C)nc(C)n2)n1 (stereo unspecified)	0.668
c1ccc(CN2CCCC(c3nccnc3-n3ccnc3)C2)cc1 (stereo unspecified)	-17.5
O=C(CO)N1CCC(c2cncc(-c3cccc(Cl)c3)n2)CC1	-3.18
CN(C)c1ncc(CN2CCOC(C(=O)Nc3ccccc3)C2)cn1 (stereo unspecified)	-6.09
Nc1nc(C2CCN(C(=O)c3cscn3)CC2)cs1	-18.4
Cc1nnc(Nc2cccc(C3CCN(CCO)CC3)n2)s1	-13.5
O=C(c1ccncc1)N1CCC(c2nc(O)cc(-c3cccnc3)n2)C1 (stereo unspecified)	-17.2
CNc1nc(C)c(C(=O)N2CCCCC2CN2CCCCCC2)s1 (stereo unspecified)	-17.9
Cc1ccc(-c2nnc(SCC(=O)O)n2-c2ccc(C)cc2)cc1	-15.4
CC(C)N1CCC(Cc2cncc(-c3ccccc3C(=O)O)n2)CC1	-17.6
CC1(C(=O)N2CCOCC2)CN(Cc2ccccc2F)CCO1 (stereo unspecified)	-11.3
COCC(=O)N1CCCC1c1cc(Nc2nnc(C)s2)nc(C)n1 (stereo unspecified)	21.4
Cc1noc(C)c1-c1cncc(C2CCCN2Cc2cncnc2)n1 (stereo unspecified)	-20.4
Cc1nonc1C(=O)N1CCCC(c2ncncc2-c2ccncc2)C1 (stereo unspecified)	-28.8
Cc1cc(-c2cnc(NC3CC3)nc2-c2ccc(C)o2)on1	-9.8
Cc1cc(-c2cnc(N3CCNC(=O)C3)nc2-c2ccc(C)o2)on1	-16.3
c1cnc(-c2cnc(N3CCSCC3)nc2C2CC2)cn1	-15.9
Cn1cc(CN2CCc3c(nc(-c4ccccn4)[nH]c3=O)C2)cn1	-23.4

SMILES	cytotoxicity at 70.5 h [%]
CC(=O)N1CCC(Cc2cnc(-c3c(C)nn(C)c3C)cn2)C1 (stereo unspecified)	-25.8
Cc1nc(C2CCCCN2C(=O)c2ccccc2)ncc1C(=O)N(C)C (stereo unspecified)	-12
Cc1cccc(Nc2nccnc2C2CCCN2CC(=O)N(C)C)n1 (stereo unspecified)	18.8
CN1CCCCC1c1ncc2c(n1)CCN(Cc1ccccc1Cl)C2 (stereo unspecified)	-7.2
COc1ccc(CN2CCc3nc(C4CCCCN4C)ncc3C2)cc1 (stereo unspecified)	-10.4
NC(=O)C1(Cc2ccccc2-c2ccccc2)CCCN(CC2CC2)C1 (stereo unspecified)	-14.5
CC(C)S(=O)(=O)N1CCC(c2cc3n(n2)[C@@H](C(F)(F)F)C[C@@H](C)N3)C1 (stereo partly specified)	-11
O=C(NCC1CC1)Nc1cnc2cc(Cl)ccc2c1O	-1.93
COc1ccc2c(O)c(NC(=O)NCC3CC3)cnc2c1	9.51
COCC(=O)N(C)Cc1nc(N2CCCC2)ncc1-c1ccncc1	13.6
COc1ccc(Cn2c(C3CCNCC3)cc3cccnc32)cc1	3.16
O[C@@H]1CN(Cc2ccc(F)c(F)c2)CC[C@H]1NCc1ccccn1	22.5
CN(C)Cc1cnc(C2CCN(C(=O)c3ccccc3F)C2)[nH]1 (stereo unspecified)	-3.2
CN(Cc1nc(N2CCCC2)ncc1-c1ccncc1)C(=O)C(C)(C)C	-2.37
CC1(C(=O)N2CCOCC2)CNCCO1 (stereo unspecified)	-7.18
CNCC(=O)N1CCCC(c2nccnc2Oc2cccc(F)c2)C1 (stereo unspecified)	-10.3
O=C(CCC1CCCC1)NCCn1nc(C2CCNC2)c2cccnc21 (stereo unspecified)	-14.1
Cc1ccc(CNC(=O)CN2CCN(CC(O)C3CC3)CC2)cc1 (stereo unspecified)	-8.6
Cc1ccc(CNC(=O)CN2CCN(CC(O)c3ccco3)CC2)cc1 (stereo unspecified)	29.2

Reference: ChEMBL document CHEMBL3507680, “University of Dundee, Gates Library screen for HepG2 cell viability”
